From article PMC8391236, “Effect of Pterostilbene, a Natural Derivative of Resveratrol, in the Treatment of Colorectal Cancer through Top1/Tdp1-Mediated DNA Repair Pathway” (Cancers, 2021) come the findings set out here.

In series [1] the test system is siRNA-Top1 CL187 cells. Kind of series: Cell viability of Top1-silenced cells. In kind it is cell-based, Human. As to the method:
(§1) PTE or RE were dissolved in DMSO and diluted with culture medium to 1–100 μM. The final concentration of DMSO was less than 0.1%, and 0.1% DMSO as negative control. […] Exponentially growing cells were seeded in 96-well plates (5 × 10^3 cells/well) for 12 h. Various drugs were added separately and incubated for 24, 48, and 72 h. Cell viability was determined by CCK-8 (Beyotime Biotechnology, Shanghai, China) assay.

Series [2] has as its system siRNA-Tdp1 CL187 cells. Kind of series: Cell viability of Tdp1-silenced cells. In kind it is cell-based, Human. As to the method:
as §1

Series [3] relates to CL187 cells. Description: Intracellular drug distribution (LC-MS/MS). In kind it is in vitro ADME, Human. As to conditions: CL187 cells incubated 6 h; nucleus, mitochondria, cytoplasm extracts. As to the method: CL187 cells were inoculated in 6-well plates, until the well was full of the cells. Then the supernatant was discarded, and the cells were washed with PBS three times. The cells were added with the different concentrations of PTE or RE and incubated for 6 h. After supernatant was discarded, the cells were washed with cold Hank’s solution for three times to terminate cell metabolism. Cell cytoplasm, nucleus, and mitochondria were extracted with the nuclear and mitochondrial extraction kit (KeyGEN BioTECH, Nanjing, China). Cells were resuspended with 1.5 mL Lysis Buffer and transferred to a 2 mL glass homogenizer for grinding (0–4 °C ice bath). The homogenate was collected and centrifuged at 800× g at 4 °C for 5 min. The nuclei were distributed in the precipitate, while the mitochondria were distributed in the supernatant. […] The protein concentration of each extract was detected by the BCA kit.
The drug contents of the extracted cell cytoplasm, nucleus, and mitochondria were determined by LC-MS/MS. […] The calibration range for the quantitation of each compound in all cellular components was 10 to 10,000 ng/mL. […]

Series [4] concerns subcutaneous CL187 xenograft. Kind of series: Subcutaneous CL187 xenograft model. The series is classed as in vivo, BABLc/nude mice. As to the method: CL187 cell suspension was collected at 1 × 10^6 /mL, and 0.1 mL cell was inoculated into the right inguinal region of nude mice. The tumor was no metastasis. The diameter of the transplanted tumor in nude mice was measured with a vernier caliper. After 16-day inoculation (the tumor grew to 90 mm^3), the animals were randomly divided into 7 groups (6 mice per group). The drug was administered by intraperitoneal injection. Blank control group was injected with saline. […] According to the preliminary test results. […] Positive control group was injected with irinotecan (20 mg/kg) twice a week, During the experiment, the changes of body weight of nude mice were recorded, and the anti-tumor effect of the samples was dynamically investigated by measuring tumor diameter. On Day 31 post treatment, the nude mice were sacrificed, and the tumor blocks were removed surgically, weighed, and recorded.

Where [5] appears, read: 25 mg/kg i.p. once a day, Day 31.
Setting [6] is: 50 mg/kg i.p. once a day, Day 31.
[7] abbreviates: 100 mg/kg i.p. once a day, Day 31.
The mark [8] stands for this setting: 200 mg/kg i.p. once a day, Day 31.

As usually defined, the IC50 is the concentration that gives 50% inhibition. High values mean weaker potency, low ones greater potency. In general, TGI refers to the reduction of tumour growth relative to the control group.

`COc1cc(/C=C/c2ccc(O)cc2)cc(OC)c1` [PTE, 3,5-dimethoxy-4′-hydroxy-trans-stilbene]: the 50% inhibitory concentration (IC50) in series [1] (Homo sapiens, 24 h, siRNA-Top1 CL187, 24 h) is 70 ± 16.2 µM; in series [1] (Homo sapiens, 48 h, siRNA-Top1 CL187, 48 h) it was 31.9 ± 8.11 µM; in series [1] (Homo sapiens, 72 h, siRNA-Top1 CL187, 72 h) it was 20.2 ± 4.1 µM; in series [1] (siRNA-Top1 CL187, 72 h) it was around 20 µM; in series [2] (Homo sapiens, 24 h, siRNA-Tdp1 CL187, 24 h), 74.2 ± 21.8 µM; in series [2] (Homo sapiens, 48 h, siRNA-Tdp1 CL187, 48 h) it was 24.8 ± 4.62 µM. The IC50 in series [2] (Homo sapiens, 72 h, siRNA-Tdp1 CL187, 72 h) is 18.4 ± 3.78 µM; in series [2] (siRNA-Tdp1 CL187, 72 h), around 20 µM. Also, the “concentration of drug in cells (maximum)” value in series [3] is “more than 70.0 ng/μg”. Besides, the “Relative Tumor Proliferation Rate (T/C, %)” value in series [4] (setting [5]) was determined as 53.53%; in series [4] (setting [6]), 39.56%; in series [4] (setting [7]), 24.20%; in series [4] (setting [8]) it was 20.71%. Moreover, in series [4] (setting [5]), the “Tumor Inhibitory Rate (TGI, %)” value is 54.24 ± 4.80%. For the same compound, the “Tumor Volume” value in series [4] (setting [5]) is recorded as 1.725 ± 0.203 ** cm^3; in series [4] (setting [6]), 1.243 ± 0.189 *** cm^3; in series [4] (setting [7]), 0.779 ± 0.168 *** cm^3; in series [4] (setting [8]), 0.623 ± 0.158 *** cm^3. The “Tumor Weight” value is listed as 1.60 ± 0.17 g in series [4] (setting [5]), 1.39 ± 0.19 g in series [4] (setting [6]), 0.96 ± 0.11 g in series [4] (setting [7]) and 0.73 ± 0.09 g in series [4] (setting [8]). Further, the TGI in series [4] (25 mg/kg, 31 days) is reported as 54.24 ± 4.80%. The “adverse reactions during the entire treatment process” value in series [4] (subcutaneous CL187 xenograft nude mice, CPT-11 20 mg/kg, PTE 25-200 mg/kg i.p.) is listed as “did not have the above-mentioned adverse reactions”.
